Data as given in ChEMBL document CHEMBL1201862, “PubChem BioAssay data set” (2004).
Calls of active or inactive are those of the source.

Experiments:
[1] = molecular target: T1, Short transient receptor potential channel 4 (Mus musculus, UniProt Q9QUQ5); assay: mouse TRPC4 channel inhibitors, dose response, cell-based, HEK293 TRPC4/mu-opioid, Fluo-4 calcium (AID 434942); assay type: functional;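 further: potency of inhibitors blocking the TRPC4 calcium response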
T1 sequence (Q9QUQ5 whole entry): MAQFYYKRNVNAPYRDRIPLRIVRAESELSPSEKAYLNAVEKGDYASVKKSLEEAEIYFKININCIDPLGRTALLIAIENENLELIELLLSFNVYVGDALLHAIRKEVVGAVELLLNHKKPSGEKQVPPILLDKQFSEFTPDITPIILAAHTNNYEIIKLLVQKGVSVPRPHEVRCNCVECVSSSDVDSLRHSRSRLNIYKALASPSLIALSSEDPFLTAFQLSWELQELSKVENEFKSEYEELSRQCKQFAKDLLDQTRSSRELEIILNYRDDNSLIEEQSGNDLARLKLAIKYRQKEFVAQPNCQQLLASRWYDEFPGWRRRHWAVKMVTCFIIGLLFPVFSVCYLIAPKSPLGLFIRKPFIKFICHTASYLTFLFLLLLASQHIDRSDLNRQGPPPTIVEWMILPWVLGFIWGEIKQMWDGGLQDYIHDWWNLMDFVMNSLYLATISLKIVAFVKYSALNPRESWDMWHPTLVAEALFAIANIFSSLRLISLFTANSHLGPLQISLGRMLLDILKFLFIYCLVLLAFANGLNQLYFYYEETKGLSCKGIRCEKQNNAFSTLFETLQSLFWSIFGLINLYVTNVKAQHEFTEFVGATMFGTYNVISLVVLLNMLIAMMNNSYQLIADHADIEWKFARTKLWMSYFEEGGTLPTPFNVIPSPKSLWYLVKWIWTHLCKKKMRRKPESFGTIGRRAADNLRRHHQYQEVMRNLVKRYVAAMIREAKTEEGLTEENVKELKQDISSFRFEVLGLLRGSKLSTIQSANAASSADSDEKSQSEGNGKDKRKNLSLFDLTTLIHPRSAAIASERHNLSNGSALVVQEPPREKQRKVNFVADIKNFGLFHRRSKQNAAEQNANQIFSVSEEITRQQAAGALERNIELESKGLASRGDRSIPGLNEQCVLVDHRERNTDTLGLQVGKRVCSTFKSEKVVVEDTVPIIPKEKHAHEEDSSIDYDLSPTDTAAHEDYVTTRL

Cytochrome P450 2C9 = Cytochrome P450 2C9 (Homo sapiens, UniProt P11712)
Cytochrome P450 3A4 [2] = molecular target: T2, Cytochrome P450 3A4 (Homo sapiens, UniProt P08684)
Cytochrome P450 3A4 [3] = molecular target: T2, Cytochrome P450 3A4; settings: Potency
BJ [4] = assay: cells; assay type: functional, cell-based; settings: Homo sapiens
[5] = Luminescence Cell-Based Dose Retest to Confirm Inhibitors of Cancer Stem Cells. [Related pubchem assays (depositor defined):AID2717, AID2721]; assay type: functional; settings: Homo sapiens
[6] = cytotoxicity toward DRD oncogenic fibroblasts, dose response, cell-based, non-viral oncogenic, luminescence (AID 1934); assay type: functional; settings: Homo sapiens
BJ [7] = assay: cytotoxicity toward BJ-TERT-LT-ST fibroblasts, dose response, cell-based, RAS-independent, luminescence (AID 1935); assay type: functional; settings: Homo sapiens;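 further: BJ fibroblasts immortalized with TERT plus LT and ST oncogenes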
Nonstructural protein 1 = Nonstructural protein 1 (Influenza A virus, UniProt Q194T2); assay type: functional, Influenza A virus (A/California/07/2009(H1N1))
BJ [8] = assay: cytotoxicity toward BJ-TERT fibroblasts, dose response, cell-based, RAS-independent, luminescence (AID 1933); assay type: functional; settings: Homo sapiens
BJ [9] = assay: cytotoxicity toward Ras-transformed BJeLR fibroblasts, dose response, cell-based, alamar blue fluorescence, cherrypicked samples (AID 2631); assay type: functional; settings: Homo sapiens;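 further: confirmatory dose-response assay in RAS-dependent BJ fibroblasts engineered with TERT, LT and ST, with cytotoxicity read by fluorescence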
Cytochrome P450 2D6 = Cytochrome P450 2D6 (Homo sapiens, UniProt P10635);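 further: CYP2D6 member of a cytochrome P450 panel assay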
[10] = molecular target: T3, Voltage-gated N-type calcium channel alpha-1B subunit/Amyloid beta A4 precursor protein-binding family A member 1 (Homo sapiens, UniProt Q00975+Q02410); assay type: protein assay
[11] = molecular target: T3, Voltage-gated N-type calcium channel alpha-1B subunit/Amyloid beta A4 precursor protein-binding family A member 1; assay type: protein assay; remark: listed apart in the source
Caspase-6 = molecular target: T4, Caspase-6 (Homo sapiens, UniProt P55212); assay: human caspase-6 inhibitors, dose response, biochemical, VEID-R110 fluorescence, cherry-pick (AID 720632)
T4 sequence (P55212 whole entry): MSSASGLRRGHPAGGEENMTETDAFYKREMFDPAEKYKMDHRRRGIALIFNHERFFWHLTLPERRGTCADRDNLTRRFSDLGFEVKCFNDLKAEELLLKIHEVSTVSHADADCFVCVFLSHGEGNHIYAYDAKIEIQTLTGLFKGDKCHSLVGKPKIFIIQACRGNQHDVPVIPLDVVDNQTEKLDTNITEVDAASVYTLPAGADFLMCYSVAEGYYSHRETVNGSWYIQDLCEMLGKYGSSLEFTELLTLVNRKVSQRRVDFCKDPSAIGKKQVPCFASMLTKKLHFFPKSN

Large T antigen = Large T antigen (Simian virus 40, UniProt P03070); assay type: functional, Betapolyomavirus macacae;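 further: Confirmatory-stage PubChem screen for compounds that inhibit SV40 T antigen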
Vero = assay: cells; assay type: functional, Chlorocebus sabaeus; settings: Chlorocebus sabaeus, Vero
[12] = test system: Streptococcus sp. 'group A'; assay: growth inhibition of control SK(-) GAS strain, dose response, counter-screen for streptokinase expression inhibitor project, luminescence, kanamycin, BacTiterGlo, confirmation (AID 1900); assay type: functional, organism-based
[13] = inhibitors of SNCA 5'UTR-driven reporter translation, confirmation, H4 neuroglioma cells, luminescence (AID 1988); assay type: functional, cell-based
Streptococcus = assay: Group A Streptococcus viability loss, dose response, counter-screen for streptokinase expression inhibitor project, luminescence, BacTiterGlo (AID 1915); assay type: functional, organism-based;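 further: potency for reduction of bacterial viability or growth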
[14] = inhibitors of firefly luciferase expression or activity, dose response, H4 neuroglioma cells, luminescence (AID 1990); assay type: functional, cell-based
[15] = Luminescence Cell-Based Dose Response HTS to Identify Inhibitors of 5'UTR Stem-Loop Driven Prion Protein mRNA Translation in H4 Neuroglioblastoma Cells. [Related pubchem assays: 1827 (Project Summary), 1813 (Primary HTS)]; assay type: functional

T2 sequence (P08684 whole entry): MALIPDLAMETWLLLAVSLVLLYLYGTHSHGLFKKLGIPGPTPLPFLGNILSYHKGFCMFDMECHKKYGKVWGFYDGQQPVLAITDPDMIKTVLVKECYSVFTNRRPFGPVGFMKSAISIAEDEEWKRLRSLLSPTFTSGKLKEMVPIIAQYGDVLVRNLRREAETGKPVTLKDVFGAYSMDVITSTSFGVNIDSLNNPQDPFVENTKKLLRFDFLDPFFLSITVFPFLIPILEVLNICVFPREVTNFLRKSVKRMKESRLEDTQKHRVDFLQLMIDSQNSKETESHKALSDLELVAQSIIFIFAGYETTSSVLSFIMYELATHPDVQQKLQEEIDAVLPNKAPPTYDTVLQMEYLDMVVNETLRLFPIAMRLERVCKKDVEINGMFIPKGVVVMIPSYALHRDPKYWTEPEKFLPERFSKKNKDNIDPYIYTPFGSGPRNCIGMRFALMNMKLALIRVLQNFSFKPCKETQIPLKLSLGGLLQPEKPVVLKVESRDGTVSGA
T3 sequence (Q00975 whole entry): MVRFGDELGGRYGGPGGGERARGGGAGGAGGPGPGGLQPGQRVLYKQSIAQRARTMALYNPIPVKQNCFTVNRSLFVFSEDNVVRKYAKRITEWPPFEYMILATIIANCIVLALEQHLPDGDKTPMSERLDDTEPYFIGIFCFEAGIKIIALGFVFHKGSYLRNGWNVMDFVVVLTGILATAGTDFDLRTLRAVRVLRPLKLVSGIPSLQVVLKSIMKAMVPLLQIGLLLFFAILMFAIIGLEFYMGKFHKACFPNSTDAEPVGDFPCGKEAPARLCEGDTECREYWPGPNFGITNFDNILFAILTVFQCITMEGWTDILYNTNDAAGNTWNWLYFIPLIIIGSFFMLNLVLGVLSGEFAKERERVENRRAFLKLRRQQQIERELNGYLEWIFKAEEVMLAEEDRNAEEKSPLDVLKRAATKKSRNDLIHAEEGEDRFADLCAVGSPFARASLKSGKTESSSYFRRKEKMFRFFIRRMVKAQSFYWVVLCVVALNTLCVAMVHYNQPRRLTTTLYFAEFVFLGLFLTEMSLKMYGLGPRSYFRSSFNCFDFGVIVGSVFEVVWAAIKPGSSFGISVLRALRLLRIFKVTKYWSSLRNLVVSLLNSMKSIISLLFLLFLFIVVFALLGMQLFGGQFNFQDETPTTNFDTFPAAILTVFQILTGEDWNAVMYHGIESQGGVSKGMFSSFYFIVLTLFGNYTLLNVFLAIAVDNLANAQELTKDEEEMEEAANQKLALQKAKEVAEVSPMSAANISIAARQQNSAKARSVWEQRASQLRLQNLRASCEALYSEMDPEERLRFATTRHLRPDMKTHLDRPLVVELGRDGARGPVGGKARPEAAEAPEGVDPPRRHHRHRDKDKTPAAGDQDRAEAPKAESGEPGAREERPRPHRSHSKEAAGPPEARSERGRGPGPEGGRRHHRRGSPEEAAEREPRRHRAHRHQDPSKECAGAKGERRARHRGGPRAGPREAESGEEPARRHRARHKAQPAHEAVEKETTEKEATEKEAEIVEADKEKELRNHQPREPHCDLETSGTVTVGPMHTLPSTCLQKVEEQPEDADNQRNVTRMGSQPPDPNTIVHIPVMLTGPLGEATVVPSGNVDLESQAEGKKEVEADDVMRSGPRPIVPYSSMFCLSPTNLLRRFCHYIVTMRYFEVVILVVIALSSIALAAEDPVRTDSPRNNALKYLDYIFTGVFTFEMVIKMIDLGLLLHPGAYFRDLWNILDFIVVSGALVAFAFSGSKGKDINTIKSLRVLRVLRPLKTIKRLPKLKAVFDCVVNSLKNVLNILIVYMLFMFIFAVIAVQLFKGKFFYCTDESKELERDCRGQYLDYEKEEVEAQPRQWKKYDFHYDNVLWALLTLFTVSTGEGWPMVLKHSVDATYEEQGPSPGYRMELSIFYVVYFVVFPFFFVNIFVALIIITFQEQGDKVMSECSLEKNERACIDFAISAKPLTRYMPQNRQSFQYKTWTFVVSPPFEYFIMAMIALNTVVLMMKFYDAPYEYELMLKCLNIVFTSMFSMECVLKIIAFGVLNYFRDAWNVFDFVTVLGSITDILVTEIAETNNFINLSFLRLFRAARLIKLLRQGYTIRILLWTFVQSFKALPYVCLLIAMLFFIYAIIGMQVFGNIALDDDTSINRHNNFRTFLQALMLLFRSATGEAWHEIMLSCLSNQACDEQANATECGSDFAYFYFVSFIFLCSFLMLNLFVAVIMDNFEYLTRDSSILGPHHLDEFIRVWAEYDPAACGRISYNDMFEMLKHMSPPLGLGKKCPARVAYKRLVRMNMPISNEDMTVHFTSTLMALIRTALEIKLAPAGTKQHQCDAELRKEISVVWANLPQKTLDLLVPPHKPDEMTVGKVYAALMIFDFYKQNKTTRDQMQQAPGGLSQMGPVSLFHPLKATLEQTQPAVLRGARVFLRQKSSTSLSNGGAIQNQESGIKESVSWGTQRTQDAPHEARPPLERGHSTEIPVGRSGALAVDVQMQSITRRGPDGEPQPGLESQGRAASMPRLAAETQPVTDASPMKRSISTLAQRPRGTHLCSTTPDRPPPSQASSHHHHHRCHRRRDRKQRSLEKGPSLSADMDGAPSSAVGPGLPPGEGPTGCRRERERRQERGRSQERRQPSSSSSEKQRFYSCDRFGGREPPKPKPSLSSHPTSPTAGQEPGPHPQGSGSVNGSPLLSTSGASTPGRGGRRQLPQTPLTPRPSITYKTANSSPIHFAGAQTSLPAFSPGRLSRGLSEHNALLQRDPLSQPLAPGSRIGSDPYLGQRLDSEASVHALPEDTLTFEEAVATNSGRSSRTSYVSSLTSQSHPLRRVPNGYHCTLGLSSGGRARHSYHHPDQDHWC
T3 sequence (Q02410 whole entry): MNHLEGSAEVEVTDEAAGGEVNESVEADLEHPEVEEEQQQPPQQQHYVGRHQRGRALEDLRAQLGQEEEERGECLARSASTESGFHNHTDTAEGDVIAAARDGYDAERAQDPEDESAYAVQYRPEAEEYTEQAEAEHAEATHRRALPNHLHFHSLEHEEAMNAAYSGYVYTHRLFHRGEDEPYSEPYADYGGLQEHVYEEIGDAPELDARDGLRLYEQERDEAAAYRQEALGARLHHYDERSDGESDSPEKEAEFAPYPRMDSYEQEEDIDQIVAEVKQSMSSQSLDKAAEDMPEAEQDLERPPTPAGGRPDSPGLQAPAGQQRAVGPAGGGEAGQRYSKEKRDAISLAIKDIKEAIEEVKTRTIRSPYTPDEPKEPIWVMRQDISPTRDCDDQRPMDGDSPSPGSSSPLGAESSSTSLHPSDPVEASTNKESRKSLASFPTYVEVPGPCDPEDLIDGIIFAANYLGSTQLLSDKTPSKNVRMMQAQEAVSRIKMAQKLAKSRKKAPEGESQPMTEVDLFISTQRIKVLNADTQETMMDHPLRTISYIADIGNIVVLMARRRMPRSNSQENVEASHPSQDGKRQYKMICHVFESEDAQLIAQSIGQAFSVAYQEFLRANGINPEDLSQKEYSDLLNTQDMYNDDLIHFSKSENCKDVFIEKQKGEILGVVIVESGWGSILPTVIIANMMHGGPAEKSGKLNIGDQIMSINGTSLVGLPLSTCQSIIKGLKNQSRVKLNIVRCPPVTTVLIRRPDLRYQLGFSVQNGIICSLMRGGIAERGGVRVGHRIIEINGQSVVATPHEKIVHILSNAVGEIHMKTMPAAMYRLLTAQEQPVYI
Chain of Cytochrome P450 2C9 (P11712 whole entry): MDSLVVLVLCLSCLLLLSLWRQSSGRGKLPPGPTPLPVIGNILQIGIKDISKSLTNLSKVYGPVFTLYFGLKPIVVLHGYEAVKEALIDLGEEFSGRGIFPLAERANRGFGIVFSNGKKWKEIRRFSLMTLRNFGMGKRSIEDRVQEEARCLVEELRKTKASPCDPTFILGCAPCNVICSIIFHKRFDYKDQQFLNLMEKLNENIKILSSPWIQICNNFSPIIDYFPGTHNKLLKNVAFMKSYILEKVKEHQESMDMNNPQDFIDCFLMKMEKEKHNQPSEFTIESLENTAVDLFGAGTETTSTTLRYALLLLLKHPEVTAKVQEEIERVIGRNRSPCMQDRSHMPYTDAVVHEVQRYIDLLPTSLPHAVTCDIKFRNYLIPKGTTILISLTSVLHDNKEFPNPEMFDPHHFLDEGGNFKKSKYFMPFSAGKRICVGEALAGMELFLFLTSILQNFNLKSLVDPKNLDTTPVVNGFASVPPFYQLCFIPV
Chain of Cytochrome P450 2D6 (P10635 whole entry): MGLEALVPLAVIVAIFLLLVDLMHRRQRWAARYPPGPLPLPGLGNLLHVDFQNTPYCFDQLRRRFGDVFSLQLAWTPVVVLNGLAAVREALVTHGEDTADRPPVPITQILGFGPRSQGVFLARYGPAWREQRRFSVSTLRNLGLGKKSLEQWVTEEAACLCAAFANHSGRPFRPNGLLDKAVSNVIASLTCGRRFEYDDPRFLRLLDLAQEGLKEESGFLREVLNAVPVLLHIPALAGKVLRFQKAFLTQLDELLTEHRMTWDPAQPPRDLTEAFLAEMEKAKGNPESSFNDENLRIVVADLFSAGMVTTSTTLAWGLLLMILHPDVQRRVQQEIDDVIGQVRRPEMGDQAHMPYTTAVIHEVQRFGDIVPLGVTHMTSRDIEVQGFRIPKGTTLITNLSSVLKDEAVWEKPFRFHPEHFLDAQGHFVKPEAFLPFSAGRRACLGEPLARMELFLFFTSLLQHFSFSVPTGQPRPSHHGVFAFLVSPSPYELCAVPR
Chain of Nonstructural protein 1 (Q194T2 whole entry): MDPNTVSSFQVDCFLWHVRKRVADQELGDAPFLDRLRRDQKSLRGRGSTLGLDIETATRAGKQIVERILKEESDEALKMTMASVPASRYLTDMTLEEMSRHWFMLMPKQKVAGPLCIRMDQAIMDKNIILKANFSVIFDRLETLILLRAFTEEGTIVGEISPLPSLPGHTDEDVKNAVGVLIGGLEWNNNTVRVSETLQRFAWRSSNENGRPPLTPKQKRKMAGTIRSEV

In the case of `Cn1cc(CNCC2CCCO2)c(-c2ccc(Oc3ccccc3)cc2)n1` (stereo unspecified), the EC50 [1] is reported as 3.35 µM (active).

For `CCOC(=O)c1sc(=S)n(-c2cccc(C(F)(F)F)c2)c1SC`, the AC50 (Cytochrome P450 2C9) was 1.58 µM (inconclusive) and the AC50 (Cytochrome P450 3A4 [2]) was “inconclusive”.

For `CC(=O)N1CC=CC1(C)C(=O)O` (stereo unspecified), the AC50 (Cytochrome P450 3A4 [3]) was 20 µM (inconclusive).

With `CCN(CC)CCCNC(=O)c1cc(-c2ccccc2)c(N2CCCCC2)s1` the EC50 (BJ [4]) was 28.8 µM (active), the AC50 [5] was 3.79 µM (active) and the EC50 [6] was 10.1 µM (active). For the same compound, the EC50 (BJ [7]) was 12.8 µM (inconclusive), the IC50 (Nonstructural protein 1) was 88.3 µM (active) and the EC50 (BJ [8]) was 9.67 µM (active). The EC50 (BJ [9]) was > 133 µM (inactive).

For `CCCCc1nc(SCCOC)c2c(=O)n(C)c(=O)n(C)c2n1`, the EC50 [1] was 1.5 µM (active).

With `COc1ccc(C(=O)N2CCC3(CC2)CCN(C(c2ccccc2)c2ccccc2)CC3)cc1` the AC50 (Cytochrome P450 2D6) was 12.6 µM (inconclusive), the AC50 (Cytochrome P450 2C9) was 39.8 µM (inconclusive) and the AC50 (Cytochrome P450 3A4 [2]) was “inconclusive”.

For `Cc1cc(N2CCCCCC2)nc2ccccc12`, the EC50 [1] was 1.33 µM (active).

For `COc1cc([C@@H]2c3cc4c(cc3[C@@H](NC3CCN(Cc5ccccc5)CC3)[C@H]3COC(=O)[C@H]23)OCO4)cc(OC)c1O`, the EC50 [6] was 2.38 µM (active), the EC50 (BJ [7]) was 0.297 µM (active) and the EC50 (BJ [8]) was 1.33 µM (active). For the same compound, the EC50 (BJ [9]) was 0.554 µM (active).

In the case of `CCC1=C2CC[C@H]3C(=O)NC(=O)[C@H]3[C@H]2[C@@]2(Cc3ccccc3)/C(=N/CC(=O)OC)OC(=O)N2C1=O`, the AC50 (Cytochrome P450 3A4 [3]) is reported as 15.8 µM (inconclusive).

For `COc1cccc(N2C(=O)NC(=O)/C(=C\c3ccc([N+](=O)[O-])s3)C2=O)c1`, the IC50 [10] was 6.66 µM (active), the IC50 [11] was 13.5 µM (active) and the AC50 (Caspase-6) was 43 µM (active). For the same compound, the IC50 (Large T antigen) was 32.4 µM (active).

For `COC1CC(C)C(OC)c2cc(O)cc(c2O)NC(=O)C(C)=CC=CC(C)C(OC(N)=O)C(C)=CC(C)C1OC` (stereo unspecified), the CC50 (Vero) was 12.6 µM (active).

With `CC1(C)N=C(N)N=C(N)N1c1ccccc1` the EC50 [12] was 0.357 µM (active), the EC50 (BJ [4]) was 8.15 µM (active) and the EC50 [13] was 1.62 µM (active). For the same compound, the EC50 (Streptococcus) was 1.3 µM (active), the EC50 [14] was 6.38 µM (active) and the EC50 [6] was 14.9 µM (active). For the same compound, the EC50 (BJ [7]) was > 150 µM (not active), the EC50 (BJ [8]) was > 150 µM (not active) and the EC50 (BJ [9]) was > 133 µM (inactive). The EC50 [15] was 15.6 µM (active).
